Assay: 28-day repeat-dose toxicity study, toxicokinetics of AMXT 1501 dicaprate
Assay type: in vivo, beagle dogs
Procedure: AMXT 1501 PK parameters were calculated for all AMXT 1501 dicaprate-dosed animals for the first dose (Day 1) and last dose (Day 28).

[1] = 8 mg/kg/day PO, DFMO 0, Day 1, M+F combined
[2] = 8 mg/kg/day PO, DFMO 0, Day 28, M+F combined
[3] = 8 mg/kg/day PO, DFMO 50 mg/kg/day, Day 28, M+F combined
[4] = 8 mg/kg/day PO, DFMO 200 mg/kg/day, Day 1, M+F combined
[5] = 16 mg/kg/day PO, DFMO 0, Day 1, M+F combined
[6] = 16 mg/kg/day PO, DFMO 0, Day 28, M+F combined
[7] = 16 mg/kg/day PO, DFMO 50 mg/kg/day, Day 28, M+F combined
[8] = 16 mg/kg/day PO, DFMO 200 mg/kg/day, Day 1, M+F combined
[9] = 32 mg/kg/day PO, DFMO 0, Day 1, M+F combined
[10] = 32 mg/kg/day PO, DFMO 0, Day 28, M+F combined

CCCCCCCCCCCCCCCC(=O)NCCCC[C@@H](N)C(=O)NCCCNCCCCNCCCN [AMXT 1501 dicaprate]
AUC0-24 hr Max. [1]: 2810 ng·h/mL
AUC0-24 hr Min. [1]: 374 ng·h/mL
Cmax Max. [1]: 158 ng/mL
Cmax Min. [1]: 30.8 ng/mL
Tmax Max. [1]: 12.0 h
Tmax Min. [1]: 2.00 h
AUC0-24 hr Max. [2]: 5230 ng·h/mL
AUC0-24 hr Min. [2]: 249 ng·h/mL
AUC0-t Max. [2]: 9470 ng·h/mL
AUC0-t Min. [2]: 308 ng·h/mL
AUC0-∞ Min. [2]: 328 ng·h/mL
Cmax Max. [2]: 360 ng/mL
Cmax Min. [2]: 17.7 ng/mL
Tmax Min. [2]: 0.00 h
t1/2 Max. [2]: 28.8 h
t1/2 Min. [2]: 12.6 h
AUC0-24 hr Max. [3]: 4230 ng·h/mL
AUC0-24 hr Min. [3]: 366 ng·h/mL
AUC0-t Max. [3]: 5010 ng·h/mL
AUC0-t Min. [3]: 1040 ng·h/mL
AUC0-∞ Max. [3]: 5120 ng·h/mL
AUC0-∞ Min. [3]: 1060 ng·h/mL
Cmax Max. [3]: 275 ng/mL
Cmax Min. [3]: 48.0 ng/mL
Tmax Max. [3]: 12.0 h
Tmax Min. [3]: 0.00 h
t1/2 Max. [3]: 24.9 h
t1/2 Min. [3]: 8.85 h
AUC0-24 hr Max. [4]: 2670 ng·h/mL
AUC0-24 hr Min. [4]: 323 ng·h/mL
Cmax Max. [4]: 182 ng/mL
Cmax Min. [4]: 35.2 ng/mL
Tmax Max. [4]: 12.0 h
AUC0-24 hr Max. [5]: 6350 ng·h/mL
AUC0-24 hr Min. [5]: 104 ng·h/mL
Cmax Max. [5]: 408 ng/mL
Cmax Min. [5]: 10.4 ng/mL
Tmax Max. [5]: 12.0 h
Tmax Min. [5]: 2.00 h
AUC0-24 hr Max. [6]: 7800 ng·h/mL
AUC0-24 hr Min. [6]: 1320 ng·h/mL
AUC0-t Max. [6]: 10800 ng·h/mL
AUC0-t Min. [6]: 4870 ng·h/mL
AUC0-∞ Max. [6]: 10800 ng·h/mL
AUC0-∞ Min. [6]: 4910 ng·h/mL
Cmax Max. [6]: 408 ng/mL
Cmax Min. [6]: 109 ng/mL
Tmax Max. [6]: 12.0 h
Tmax Min. [6]: 0.00 h
t1/2 Max. [6]: 35.8 h
t1/2 Min. [6]: 10.1 h
AUC0-24 hr Max. [7]: 10800 ng·h/mL
AUC0-24 hr Min. [7]: 1480 ng·h/mL
AUC0-t Max. [7]: 22300 ng·h/mL
AUC0-t Min. [7]: 3410 ng·h/mL
AUC0-∞ Max. [7]: 22600 ng·h/mL
AUC0-∞ Min. [7]: 3610 ng·h/mL
Cmax Max. [7]: 578 ng/mL
Cmax Min. [7]: 98.4 ng/mL
Tmax Max. [7]: 12.0 h
Tmax Min. [7]: 0.00 h
t1/2 Max. [7]: 69.4 h
t1/2 Min. [7]: 26.4 h
AUC0-24 hr Max. [8]: 4280 ng·h/mL
AUC0-24 hr Min. [8]: 94.4 ng·h/mL
Cmax Max. [8]: 263 ng/mL
Cmax Min. [8]: 7.27 ng/mL
Tmax Max. [8]: 12.0 h
AUC0-24 hr Max. [9]: 6590 ng·h/mL
AUC0-24 hr Min. [9]: 999 ng·h/mL
Cmax Max. [9]: 353 ng/mL
Cmax Min. [9]: 58.2 ng/mL
Tmax Max. [9]: 12.0 h
Tmax Min. [9]: 2.00 h
AUC0-24 hr Max. [10]: 16600 ng·h/mL
AUC0-24 hr Min. [10]: 2830 ng·h/mL
AUC0-t Max. [10]: 41500 ng·h/mL
AUC0-t Min. [10]: 8730 ng·h/mL
AUC0-∞ Max. [10]: 41700 ng·h/mL
AUC0-∞ Min. [10]: 8810 ng·h/mL
Cmax Max. [10]: 1110 ng/mL
Cmax Min. [10]: 190 ng/mL
Tmax Max. [10]: 12.0 h
Tmax Min. [10]: 0.00 h
t1/2 Max. [10]: 61.1 h
t1/2 Min. [10]: 27.3 h
dose-proportionality of plasma levels of AMXT 1501 (8, 16 and 32 mg/kg/day, Day 1 and Day 28, enterically-coated tablets): approximately dose-proportional increases
half-life at 28 days (beagle, dog, plasma, oral, Day 28, all dose groups, read-out: Day 28 individual animal AMXT 1501 t1/2 values): 8.85 to 69.4 h
AUC(0-t) (both sexes, beagle, dog, plasma, po, 8 mg/kg/day, 8 mg/kg/day PO, DFMO 0, Day 1, M+F combined, read-out: AUC0-24 hr Mean): 1330 ng·h/mL

From US12364709B2, “Bioavailable poly amines” (AMINEX THERAPEUTICS, INC., priority 2016, dated 2025)
